The NIST ThermoML archive (doi:10.1021/je400184t)

Test: excess molar enthalpy (molar enthalpy of mixing); xn = mol fraction of the nth substance listed
Conditions: 298.15 K, 101 kPa, Liquid, Calvet calorimetry

NCCO [2-aminoethan-1-ol] + c1ccncc1
Conditions	excess molar enthalpy [kcal/mol]
x2 = 0.00998	0.00765
x2 = 0.0187	0.0143
x2 = 0.02728	0.021
x2 = 0.0357	0.0272
x2 = 0.04398	0.0335
x2 = 0.05212	0.0394
x2 = 0.06012	0.0452
x2 = 0.06798	0.0509
x2 = 0.07572	0.0562
x2 = 0.08333	0.0614
x2 = 0.09081	0.0667
x2 = 0.09818	0.0715
x2 = 0.1054	0.0762
x2 = 0.1125	0.0808
x2 = 0.1196	0.0851
x2 = 0.1265	0.0894
x2 = 0.1333	0.093
x2 = 0.14	0.09656
x2 = 0.1466	0.1001
x2 = 0.153	0.1035
x2 = 0.1594	0.1066
x2 = 0.1657	0.1097
x2 = 0.1719	0.113
x2 = 0.1782	0.115
x2 = 0.1845	0.118
x2 = 0.1907	0.1212
x2 = 0.197	0.124
x2 = 0.2032	0.1267
x2 = 0.2095	0.1293
x2 = 0.2157	0.1319
x2 = 0.222	0.1343
x2 = 0.2282	0.137
x2 = 0.2345	0.1393
x2 = 0.2407	0.1417
x2 = 0.247	0.1439
x2 = 0.2532	0.1463
x2 = 0.2595	0.1484
x2 = 0.2657	0.1508
x2 = 0.272	0.153
x2 = 0.2782	0.1551
x2 = 0.2845	0.157
x2 = 0.2907	0.1592
x2 = 0.297	0.1611
x2 = 0.3032	0.163
x2 = 0.3095	0.1649
x2 = 0.3157	0.1668
x2 = 0.322	0.1687
x2 = 0.3282	0.1704
x2 = 0.3345	0.1723
x2 = 0.3407	0.174
x2 = 0.347	0.1757
x2 = 0.3532	0.1773
x2 = 0.3595	0.179
x2 = 0.3621	0.1797
x2 = 0.3652	0.1804
x2 = 0.3684	0.1812
x2 = 0.3716	0.1821
x2 = 0.3748	0.1828
x2 = 0.3781	0.1836
x2 = 0.3815	0.1845
x2 = 0.385	0.1852
x2 = 0.3885	0.1859
x2 = 0.3921	0.1867
x2 = 0.3957	0.1869
x2 = 0.3994	0.1879
x2 = 0.4032	0.1888
x2 = 0.407	0.1898
x2 = 0.4109	0.1905
x2 = 0.4149	0.1914
x2 = 0.419	0.1924
x2 = 0.4232	0.1934
x2 = 0.4274	0.1943
x2 = 0.4317	0.195
x2 = 0.4361	0.196
x2 = 0.4406	0.1969
x2 = 0.4452	0.1977
x2 = 0.4499	0.1986
x2 = 0.4547	0.1993
x2 = 0.4596	0.2003
x2 = 0.4646	0.201
x2 = 0.4698	0.202
x2 = 0.475	0.2027
x2 = 0.4803	0.2034
x2 = 0.4858	0.2043
x2 = 0.4914	0.2051
x2 = 0.4971	0.2055
x2 = 0.503	0.2063
x2 = 0.509	0.207
x2 = 0.5151	0.2075
x2 = 0.5214	0.2079
x2 = 0.5219	0.2082
x2 = 0.5284	0.2087
x2 = 0.535	0.2091
x2 = 0.5418	0.2096
x2 = 0.5488	0.2098
x2 = 0.5559	0.2103
x2 = 0.5633	0.2103
x2 = 0.5708	0.2106
x2 = 0.5786	0.2106
x2 = 0.5865	0.2106
x2 = 0.5947	0.2106
x2 = 0.6031	0.2103
x2 = 0.6117	0.2101
x2 = 0.6206	0.2096
x2 = 0.6298	0.2089
x2 = 0.6392	0.2082
x2 = 0.649	0.2072
x2 = 0.659	0.206
x2 = 0.6693	0.2046
x2 = 0.68	0.2029
x2 = 0.691	0.201
x2 = 0.7024	0.1989
x2 = 0.7141	0.1965
x2 = 0.7263	0.1934
x2 = 0.7389	0.1902
x2 = 0.7519	0.1862
x2 = 0.7654	0.1819
x2 = 0.7793	0.1766
x2 = 0.7938	0.1709
x2 = 0.8089	0.1642
x2 = 0.8245	0.1568
x2 = 0.8408	0.1482
x2 = 0.8577	0.1377
x2 = 0.8753	0.1264
x2 = 0.8936	0.113
x2 = 0.9127	0.09728
x2 = 0.9327	0.0791
x2 = 0.9535	0.0574
x2 = 0.9753	0.0323
x2 = 0.9981	0.0012
